This note sets out measurements from patent EP0044212B1, “Herbicidal o-alkylsulfonyloxy- and o-alkylsulfonylamino-benzenesulfonamides” (E.I. DU PONT DE NEMOURS AND COMPANY, priority 1980, dated 1982).

For assay [1], the system named is Soybean. Nature of the assay: Test C pre-emergence on Fallsington silt loam soil. The class given is in vivo, soybeans. The conditions noted are these: 0.03 kg/ha, 28 days. The source says:
(§1) The high herbicidal activity of two of the compounds from within the scope of the invention is evident from the results obtained in this test. The experiment concerned pre-emergence applications on soil. The containers used were 25 cm diameter plastic pots filled with Fallsington silt loam. One set of pots was planted to weeds, the seeds of which were uniformly mixed with the top 1.2 cm layer of soil. The species selected were: johnsongrass (Sorghum halepense), barnyardgrass (Echinochloa crusgalli), crabgrass (Digitaria sanguinalis), giant foxtail (Setaria faberii), velvetleaf (Abutilon theophrasti), jimsonweed (Datura stramonium), mustard (Brassica arvensis), and pigweed (Amaranthus retroflexus). Another set of pots were planted to the following crops with from one to four species per pot: corn (planting depth 3.7 cm), cotton, soybeans, sunflower, Clinton oats, wheat, Black Valentine beans, rice, sorghum, peas, flax, and peanuts (all at 2.5 cm depth), cucumbers, cabbage, alfalfa, safflower, sugarbeets, tomato, spinach, barley, and Kentucky bluegrass (all at 1.2 cm depth). Immediately after planting, the test chemical was applied to the soil surfaces dissolved in a non-phytotoxic solvent. One pot from the weed phase and one of each of the crop species were left untreated for the purpose of comparison. […]

For assay [2], the system named is Peanut. Nature of the assay: Test C pre-emergence on Fallsington silt loam soil. Format: in vivo, peanuts. Conditions: 0.03 kg/ha, 28 days.
Description: as §1

Assay [3] relates to Barley. The experiment in a line: Test C pre-emergence on Fallsington silt loam soil. The class given is in vivo. The conditions noted are these: 0.03 kg/ha, 28 days. An excerpt: (§2) The high herbicidal activity of two of the compounds from within the scope of the invention is evident from the results obtained in this test. The experiment concerned pre-emergence applications on soil. The containers used were 25 cm diameter plastic pots filled with Fallsington silt loam. One set of pots was planted to weeds, the seeds of which were uniformly mixed with the top 1.2 cm layer of soil. The species selected were: johnsongrass (Sorghum halepense), barnyardgrass (Echinochloa crusgalli), crabgrass (Digitaria sanguinalis), giant foxtail (Setaria faberii), velvetleaf (Abutilon theophrasti), jimsonweed (Datura stramonium), mustard (Brassica arvensis), and pigweed (Amaranthus retroflexus). Another set of pots were planted to the following crops with from one to four species per pot: corn (planting depth 3.7 cm), cotton, soybeans, sunflower, Clinton oats, wheat, Black Valentine beans, rice, sorghum, peas, flax, and peanuts (all at 2.5 cm depth), cucumbers, cabbage, alfalfa, safflower, sugarbeets, tomato, spinach, barley, and Kentucky bluegrass (all at 1.2 cm depth). Immediately after planting, the test chemical was applied to the soil surfaces dissolved in a non-phytotoxic solvent. One pot from the weed phase and one of each of the crop species were left untreated for the purpose of comparison. The treated and untreated pots were promptly watered with approximatley 4 mm of simultated rainfall and then held in a greenhouse for several weeks. Visual weed and crop response ratings were made 28 days after treatment utilizing the rating system as described above for Test A. The data are given in Table C.

Assay [4] has as its system Flax. Nature of the assay: Test C pre-emergence on Fallsington silt loam soil. Conditions: 0.03 kg/ha, 28 days. The class given is in vivo.
Description: as §2

The test system of assay [5] is Rice. Nature of the assay: Test C pre-emergence on Fallsington silt loam soil. The class given is in vivo. Conditions: 0.03 kg/ha, 28 days.
Description: as §2

Assay [6] concerns Sunflower. Nature of the assay: Test C pre-emergence on Fallsington silt loam soil. Format: in vivo. The conditions noted are these: 0.03 kg/ha, 28 days.
Description: as §2

Assay [7] relates to Tomato. Nature of the assay: Test C pre-emergence on Fallsington silt loam soil. Format: in vivo. Conditions: 0.03 kg/ha, 28 days.
Description: as §2

Assay [8] concerns Wheat. Nature of the assay: Test C pre-emergence on Fallsington silt loam soil. Format: in vivo. Conditions: 0.03 kg/ha, 28 days.
Description: as §2

Assay [9] deals with Bean. Nature of the assay: Test C pre-emergence on Fallsington silt loam soil. Format: in vivo, Black Valentine beans. Conditions: 0.03 kg/ha, 28 days.
Description: as §1

The test system of assay [10] is Ky. bluegrass. The experiment in a line: Test C pre-emergence on Fallsington silt loam soil. Format: in vivo, Kentucky bluegrass. The conditions noted are these: 0.03 kg/ha, 28 days.
Description: as §1

Assay [11] relates to Grasses. The experiment in a line: Test C pre-emergence on Fallsington silt loam soil. The class given is in vivo, johnsongrass, barnyardgrass, crabgrass, giant foxtail. Conditions: 28 days.
Description: as §2

For assay [12], the system named is Rice. Nature of the assay: Test F over-the-top soil/foliage treatment. Format: in vivo. Conditions: soil/foliage spray, ~14 days. Summed up:
(§3)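 Plants were raised in Woodstown sandy loam in the greenhouse and sprayed about 14 days after planting with test chemicals dissolved in a non-phytotoxic solvent, applied over foliage and surrounding soil. Response was rated visually against untreated controls roughly fourteen days after treatment.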

Assay [13] deals with Soybeans. Nature of the assay: Test F over-the-top soil/foliage treatment. The class given is in vivo. Conditions: for Soybeans response rating: soil/foliage spray, ~14 days. Put shortly:
as §3

Assay [14] concerns Jimsonweed. The experiment in a line: Test G broadleaf herbicidal properties, overall spray. The class given is in vivo. The conditions noted are these: 0.015 kg/ha, 22 days after treatment. How it is done:
(§4) Approximately 12 soybean plants were grown in a 25 cm. diameter plastic pot. In another pot of equal size the following broadleaf plant species were grown: sugarbeets, velvetleaf, Sesbania, Cassia, mustard, morningglory, alfalfa, jimsonweed, and cocklebur. The plant foliage and surrounding soil were treated with the test chemical dissolved in a non-phytotoxic solvent as an overall spray at the rate of 0.015 kg/ha, when the plants were 17 days old. Visual ratings of herbicidal effects were made 22 days after treatment utilizing the rating system described for Test A.

The subject of assay [15] is Mustard. Described as above. Format: in vivo. Conditions: 0.015 kg/ha, 22 days after treatment. How it is done:
as §4

Assay [16] concerns Sugarbeets. The description is as above. Format: in vivo. The conditions noted are these: 0.015 kg/ha, 22 days after treatment. How it is done: as §4
The test system of assay [17] is Blackgrass. Nature of the assay: Test D pre-/post-emergence weed control in cereals. Format: in vivo, Alopecurus myosuroides. The conditions noted are these: 0.015 kg/ha, 20 days. An excerpt: (§5) Two ten-inch in diameter plastic pans lined with polyethylene liners were filled with prepared Fallsington slit loam soil. One pan was planted with seeds of wheat (Triticum aestivum), barley (Hordeum vulgarel, wild oats (Avena fatua), downy brome (Bromus tectorum), cheatgrass (Bromus secalinus), blackgrass (Alopecurus myosuroides), annual bluegrass (Poa annual, green foxtail (Setaria viridis), quack grass (Agropyron repens), Italian ryegrass (Lolium multiflorum) and ripgut brome (Bromus rigidus). The other pan was planted with seeds of Russian thistle (Salsola kali), tansy mustard (Descuraina pinnata), smartweed (Polygonum pensylvanicum), tumble mustard (Sisymbrium altissium) kochia (Kochia scoparia), shepherd's purse (Capsella bursa-pastoris), Matricaria inodora, black nightshade (Solanum nigrum), yellow rocket (Barbarea vulgaris), wild mustard (Brassica kaber) and wild buckwheat (Polygonum convolvulus). The above two pans were treated pre-emergence. At the same time two pans in which the above plant species were growing were treated post-emergence. […]
(§6) The compounds applied were diluted with a non-phytotoxic solvent and sprayed over-the-top of the pans. […] The recorded data, presented in Table D, indicate that certain compounds from within the scope of the invention have utility for pre- and/or post-emergence weed control in cereal crops such as wheat and barley.

Assay [18] relates to Annual Bluegrass. Nature of the assay: Test D pre-/post-emergence weed control in cereals. The class given is in vivo, Poa annual. Conditions: 20 days. An excerpt:
(§7) Two ten-inch in diameter plastic pans lined with polyethylene liners were filled with prepared Fallsington slit loam soil. One pan was planted with seeds of wheat (Triticum aestivum), barley (Hordeum vulgarel, wild oats (Avena fatua), downy brome (Bromus tectorum), cheatgrass (Bromus secalinus), blackgrass (Alopecurus myosuroides), annual bluegrass (Poa annual, green foxtail (Setaria viridis), quack grass (Agropyron repens), Italian ryegrass (Lolium multiflorum) and ripgut brome (Bromus rigidus). The other pan was planted with seeds of Russian thistle (Salsola kali), tansy mustard (Descuraina pinnata), smartweed (Polygonum pensylvanicum), tumble mustard (Sisymbrium altissium) kochia (Kochia scoparia), shepherd's purse (Capsella bursa-pastoris), Matricaria inodora, black nightshade (Solanum nigrum), yellow rocket (Barbarea vulgaris), wild mustard (Brassica kaber) and wild buckwheat (Polygonum convolvulus). The above two pans were treated pre-emergence. At the same time two pans in which the above plant species were growing were treated post-emergence. Plant height at the time of treatment ranged from 1-15 cm depending on plant species.
(§8) The compounds applied were diluted with a non-phytotoxic solvent and sprayed over-the-top of the pans. An untreated control and a solvent alone control were included for comparison. All treatments were maintained in the greenhouse for 20 days at which time the treatments were compared to the controls and the effects visually rated. The recorded data, presented in Table D, indicate that certain compounds from within the scope of the invention have utility for pre- and/or post-emergence weed control in cereal crops such as wheat and barley.

Assay [19] relates to Shepherd's Purse. The experiment in a line: Test D pre-/post-emergence weed control in cereals. The class given is in vivo, Capsella bursa-pastoris. Conditions: 20 days.
Description: as §5, §6

The subject of assay [20] is Wild Mustard. Nature of the assay: Test D pre-/post-emergence weed control in cereals. Format: in vivo, Brassica kaber. The conditions noted are these: 20 days.
Description: as §7, §8

Each structure is given as a SMILES string.

On to `COc1cc(OC)nc(NC(=O)NS(=O)(=O)c2ccccc2OS(C)(=O)=O)n1` [Compound 1, N-[(4,6-Dimethoxypyrimidin-2-yl)aminocarbonyl]-2-hydroxybenzenesulfonamide, methanesulfonate], for which, in [1], the Soybean response rating is on record as 4G, 2lH. In addition, the Peanut response rating in assay [2] is on record as 6G. Also, in [3], the Barley response rating stood at 3G. The same compound had a Flax response rating in [4] of 6G. Also, the Rice response rating in assay [5] turned out to be 6G. In addition, the Sunflower response rating in assay [6] amounted to 5G. This compound yielded a Tomato response rating in assay [7] of 4G. Also, in assay [8], the Wheat response rating came out at 2G. The compound also registered a Bean response rating in [9] of 0. The “Ky. bluegrass response rating” value in [10] was 7G. In addition, the Grasses response rating in assay [11] (0.0035 kg/ha) is listed as 0; in assay [11] (0.0075 kg/ha) it was 0; in assay [11] (0.015 kg/ha), 2G.

`CCCS(=O)(=O)Oc1ccccc1S(=O)(=O)NC(=O)Nc1nc(C)nc(OC)n1` [Compound 39, 2-hydroxy-N-[(4-methoxy-6-methyl-1,3,5-triazin-2-yl)aminocarbonyl]benzenesulfonamide, 1-propanesulfonate]: the Rice response rating in assay [12] (0.007 kg/ha) was 2G; in [12] (0.03 kg/ha), 4G; in assay [12] (0.06 kg/ha), 0; in assay [12] (0.12 kg/ha) it was 0. Further, the “post-emergence control of weeds in soybeans” value in [13] (conclusion from Test F) is recorded as “has utility for the post-emergence control of weeds in soybeans”. Further, the Soybeans response rating in [13] (0.007 kg/ha) stood at 0; in assay [13] (0.03 kg/ha), 4G. The same compound came in with a Jimsonweed response rating in [14] of 0. This compound also gave a Mustard response rating in assay [15] of 10C. In assay [16], this compound had a Sugarbeets response rating of 9G.

On to `CCCS(=O)(=O)Oc1ccccc1S(=O)(=O)NC(=O)Nc1nc(OC)cc(OC)n1` [Compound 36, N-[(4,6-dimethoxypropimidin-2-yl)aminocarbonyl]-2-hydroxybenzenesulfonamide, 1-propanesulfonate], for which the Blackgrass response rating in assay [17] (Post-Emergence) amounted to 2G; in assay [17] (Pre-Emergence), 6G. Besides, the “Annual Bluegrass response rating” value in assay [18] (Post-Emergence, 0.015 kg/ha) amounted to 2G; in assay [18] (Post-Emergence, 0.06 kg/ha) it was 3G; in [18] (Pre-Emergence, 0.015 kg/ha) it was 6G. Besides, the “Shepherd's Purse response rating” value in assay [19] (Post-Emergence, 0.06 kg/ha) worked out at 10C; in [19] (Pre-Emergence, 0.015 kg/ha), 7G. The “Wild Mustard response rating” value is on record as 10C in [20] (Post-Emergence, 0.015 kg/ha); 10C in assay [20] (Post-Emergence, 0.06 kg/ha); 10C in assay [20] (Pre-Emergence, 0.06 kg/ha).
